According to patent publication EP0869800B1, “ACYLGLYCINE- AND ZINC SALT-BASED ANTIBACTERIAL COMPOUND” (PIERRE FABRE DERMO-COSMETIQUE, priority 1995, dated 1997):

How the values were obtained:
[1] = tested on: Staphylococcus aureus 6538 P; assay: Study of the association by the checkerboard method on microplate (CMI in association, FiC, FiC Index); format: cell-based; conditions: for FiC: CMI of the product in association / CMI of the product alone
Procedure: • . souche: Staphylococcus aureus 6538 P • milieu de culture : • . bouillon et gélose trypticase soja (Biomérieux) • . bouillon Trypticase soja + 10% Tween 80. • appareillage : • . microplaques stériles Nunc R Nunclon à 96 puits • . eau distillée stérile • . tubes à essais stériles • . étuve à 32°C (Jouan) • . spectrophotomètre PRIM et cuves adaptées • . billes de verres stériles • produits : Les solutions-mères des produits cités ci-dessous ont été préparés comme suit : • . Zn SO 4: solution aqueuse à 5% • . n-octanoyl-glycine : solution à 1% dans 30% butylène glycol puis chauffage jusqu'à dissolution homogène. • méthodes : • CMI : Concentration Minimale Inhibitrice Une distribution de 100 µl de bouillon Trypticase soja est réalisée dans chaque cupule de la microplaque stérile A. Une distribution de 100 µl des différents produits a lieu dans une cupule (on est alors à 50% d'actif) (une cupule par produit). Une série de dilutions sériées au demi est ensuite réalisée sur microplaque. Un témoin stérilité du milieu et un autre témoin de la vigueur de la souche sont réalisés en parallèle sur la microplaque. L'ensemencement de la microplaque (A) a lieu sous la hotte après préparation de l'inoculum bactérien comme suit : Les souches ayant été préalablement repiquées la veille sur gélose Trypticase soja, un inoculum 10^8 germes/ml est dispersé dans l'eau distillée stérile puis agité au vortex. Les billes de verre assurant une bonne dispersion des souches, la mesure de la densité optique permet de préparer un inoculum adéquat par rapport à un étalonnage pré-établi et validé. La répartition de la souche a lieu dans une deuxième microplaque (B) stérile par distribution de 100 µl d'inoculum par microcupule. L'ensemencement a lieu par un repiquage de la microplaque (B) vers la microplaque (A), il se réalise ainsi une dilution au 1/100 de l'inoculum : la microplaque A contenant alors 10^6 germes par ml, peut être mise à l'étuve 24 h à 32°C. […]

[2] = tested on: Staphylococcus aureus 6538 P; assay: Minimal inhibitory concentration (CMI), serial half dilutions in broth on microplate; format: cell-based; conditions: product alone; 24 h at 32°C; 10^6 germes par ml
Procedure: • . souche: Staphylococcus aureus 6538 P • milieu de culture : • . bouillon et gélose trypticase soja (Biomérieux) • . bouillon Trypticase soja + 10% Tween 80. • appareillage : • . microplaques stériles Nunc R Nunclon à 96 puits • . eau distillée stérile • . tubes à essais stériles • . étuve à 32°C (Jouan) • . spectrophotomètre PRIM et cuves adaptées • . billes de verres stériles • produits : Les solutions-mères des produits cités ci-dessous ont été préparés comme suit : • . Zn SO 4: solution aqueuse à 5% • . n-octanoyl-glycine : solution à 1% dans 30% butylène glycol puis chauffage jusqu'à dissolution homogène. • méthodes : • CMI : Concentration Minimale Inhibitrice Une distribution de 100 µl de bouillon Trypticase soja est réalisée dans chaque cupule de la microplaque stérile A. Une distribution de 100 µl des différents produits a lieu dans une cupule (on est alors à 50% d'actif) (une cupule par produit). Une série de dilutions sériées au demi est ensuite réalisée sur microplaque. Un témoin stérilité du milieu et un autre témoin de la vigueur de la souche sont réalisés en parallèle sur la microplaque. […]

SMILES	FiC [1]	CMI Associés ([1]; product in association (checkerboard), incubation at 32°C)	CMI Seuls [2]
O=S(=O)([O-])[O-].[Zn+2] [Zn SO 4, sulfate de zinc]	0,20	0,03	0,15
CCCCCCCC(=O)NCC(=O)O [n octanoyl glycine, n-octanoyl-glycine]	0,5	–	0,25
